# Tested on: mice, 25 minutes renal ischemia/reperfusion
# Assay: Mouse renal ischemia reperfusion test (mortality, BUN/serum urea)
# Type: in vivo
# Design: BUN, mean / Urea level: unit not given here
# Details: for BUN, mean: 5 mg/kg i.v.
# Procedure: SEQ ID NO:2 was tested and compared with PBS (control) in a double blind animal study for the peptide's relative ability to aid recovery in a mouse renal ischemia reperfusion test. In this test, the mice were anesthetized, and one kidney from each mouse was removed. The other kidney was tied off for 25 minutes, and the serum urea levels were allowed to increase. Both before and after tying off, the peptide was administered to thirty (30) different mice (5 mg oligopeptide/kg body mass intravenously), after which, the mortality of the mice was determined for each oligopeptide as well as was the BUN concentration at two hours, 24 hours and 72 hours.
# Under inhalation anesthesia, the left kidney with its artery and vein was isolated and occluded for 25 minutes using a microvascular clamp. During surgery animals were placed on a heating path to maintain body temperature at 37° C. Five minutes before placing the clamp, and 5 minutes before releasing the clamp, 5 mg/kg of peptide, dissolved in 0.1 mL of sterile saline, was administered intravenously. After reperfusion of the left kidney the right kidney was removed. Kidney function was assessed by measuring blood urea nitrogen before clamping, and at 2, 24, and 72 hours after reperfusion.
# To determine dose-response relationships SEQ ID NO:2, was tested in a dose-response manner in the mice test as described above. Peptides were tested at 0.3, 1, 3, 10 and 30 mg/kg dosages given as described in Example I. Serum urea levels are presented in Table 3.
substance,measurement,setting,value
"AQGV [tetrapeptide derived from human chorionic gonadotropin, alanine replacement of LQGV]",Mortality in dose-response experiment,"0.3 mg/kg, 24 h",0-9
same,Urea level,"0.3 mg/kg, 24 h",62.4
same,Mortality in dose-response experiment,"0.3 mg/kg, 72 h",2-10
same,Urea level,"0.3 mg/kg, 72 h",86.7
same,Mortality in dose-response experiment,"1.0 mg/kg, 24 h",0-10
same,Urea level,"1.0 mg/kg, 24 h",50.0
same,Mortality in dose-response experiment,"1.0 mg/kg, 72 h",1-8
same,Urea level,"1.0 mg/kg, 72 h",52.6
same,Mortality in dose-response experiment,"3.0 mg/kg, 24 h",1-10
same,Urea level,"3.0 mg/kg, 24 h",37.4
same,Mortality in dose-response experiment,"3.0 mg/kg, 72 h",0-10
same,Urea level,"3.0 mg/kg, 72 h",19.6
same,mortality at 72 hours post-reperfusion,"5 mg/kg i.v. before and after clamping, dead/total",0/10
same,Mortality in dose-response experiment,"10.0 mg/kg, 24 h",0-10
same,Urea level,"10.0 mg/kg, 24 h",41.2
same,Mortality in dose-response experiment,"10.0 mg/kg, 72 h",0-8
same,Urea level,"10.0 mg/kg, 72 h",37.1
same,Mortality in dose-response experiment,"30.0 mg/kg, 24 h",0-8
same,Urea level,"30.0 mg/kg, 24 h",47.8
same,Mortality in dose-response experiment,"30.0 mg/kg, 72 h",3-10
same,Urea level,"30.0 mg/kg, 72 h",38.0
same,"BUN, mean",2 hr after reperfusion,16.62
same,"BUN, mean",24 hr after reperfusion,26.36
same,"BUN, mean",72 hr after reperfusion,22.31
same,"BUN, mean",t = 0 hr (before clamping),9.713

# Source: US8680059B2, “Oligopeptide acetate and formulations thereof” (Biotempt B.V., priority 1998, dated 2014)
